Test results as given in ChEMBL document CHEMBL5518177, “Discovery of GPX4 inhibitors through FP-based high-throughput screening” (Eur J Med Chem, 2024).
Each block holds one compound with its values, some of them ahead of it. Calls of active or inactive are those of the source. The rule behind the calls is not given here.

Columns and labels:
[1] = Inhibition of N-terminal 6His-TEV-tagged recombinant human GPX4-U46C-C10A-C66A mutant (Met1 to Phe170 residues) expressed in Escherichia coli BL21 (DE3) cells incubated for 20 mins by fluorescence polarization based high-throughput screening assay
Homo sapiens [2] = species on record: Homo sapiens; test: Inhibition of N-terminal 6His-TEV-tagged recombinant human GPX4-U46C-C10A-C66A mutant (Met1 to Phe170 residues) expressed in Escherichia coli BL21 (DE3) cells at 1 to 100 uM incubated for 20 mins by fluorescence polarization based high-throughput screening assay; conditions: dose 1-100 µM
[3] = Binding affinity to N-terminal 6His-TEV-tagged recombinant human GPX4-U46C-C10A-C66A mutant (Met1 to Phe170 residues) expressed in Escherichia coli BL21 (DE3) cells incubated for 20 mins in presence of FITC-labeled peptide by fluorescence polarization based competitive binding assay; type: cell-based
[4] = Inhibition of N-terminal 6His-TEV-tagged recombinant human GPX4-U46C-C10A-C66A mutant (Met1 to Phe170 residues) expressed in Escherichia coli BL21 (DE3) cells using tert-butyl hydroperoxide as substrate preincubated for 10 mins in presence of NADPH and GSH followed by substrate addition and measured after 30 mins by absorbance based plate reader analysis
[5] = Binding affinity to N-terminal 6His-TEV-tagged recombinant human GPX4-U46C-C10A-C66A mutant (Met1 to Phe170 residues) expressed in Escherichia coli BL21 (DE3) cells assessed as dissociation constant incubated for 10 mins by microscale thermophoresis assay
Homo sapiens [6] = species on record: Homo sapiens; test: Inhibition of N-terminal 6His-TEV-tagged recombinant human GPX4-U46C-C10A-C66A mutant (Met1 to Phe170 residues) expressed in Escherichia coli BL21 (DE3) cells using tert-butyl peroxide as substrate assessed as Vmax at 10 uM preincubated for 10 mins in presence of NADPH and GSH followed by substrate …; conditions: time 40.0 min
Homo sapiens [7] = species on record: Homo sapiens; test: (§1) Inhibition of N-terminal 6His-TEV-tagged recombinant human GPX4-U46C-C10A-C66A mutant (Met1 to Phe170 residues) expressed in Escherichia coli BL21 (DE3) cells using tert-butyl peroxide as substrate assessed as Vmax at 20 uM preincubated for 10 mins in presence of NADPH and GSH followed by substrate addition and measured after 30 mins by absorbance based plate reader analysis (reference value: 0.556 +/- 0.058 nM/min); conditions: time 40.0 min
Homo sapiens [8] = species on record: Homo sapiens; test: as §1, with “30” for “20”; conditions: time 40.0 min
Homo sapiens [9] = species on record: Homo sapiens; test: as §1, with “40” for “20”; conditions: time 40.0 min
Homo sapiens [10] = species on record: Homo sapiens; test: as §1, with “50” for “20”; conditions: time 40.0 min
Homo sapiens [11] = species on record: Homo sapiens; test: Inhibition of N-terminal 6His-TEV-tagged recombinant human GPX4-U46C-C10A-C66A mutant (Met1 to Phe170 residues) expressed in Escherichia coli BL21 (DE3) cells using tert-butyl peroxide as substrate assessed as Km at 10 uM preincubated for 10 mins in presence of NADPH and GSH followed by substrate …; conditions: time 40.0 min
Homo sapiens [12] = species on record: Homo sapiens; test: as §1, with “Km” for “Vmax”, “36.04” for “0.556”, “7.80 microM)” for “0.058 nM/min)”; conditions: time 40.0 min
Homo sapiens [13] = species on record: Homo sapiens; test: as §1, with “Km” for “Vmax”, “30” for “20”, “36.04” for “0.556”, “7.80 microM)” for “0.058 nM/min)”; conditions: time 40.0 min
Homo sapiens [14] = species on record: Homo sapiens; test: as §1, with “Km” for “Vmax”, “40” for “20”, “36.04” for “0.556”, “7.80 microM)” for “0.058 nM/min)”; conditions: time 40.0 min
Homo sapiens [15] = species on record: Homo sapiens; test: as §1, with “Km” for “Vmax”, “50” for “20”, “36.04” for “0.556”, “7.80 microM)” for “0.058 nM/min)”; conditions: time 40.0 min
Homo sapiens [16] = species on record: Homo sapiens; test: Non-covalent binding to N-terminal 6His-TEV-tagged recombinant human GPX4-U46C-C10A-C66A mutant (Met1 to Phe170 residues) expressed in Escherichia coli BL21 (DE3) cells by mass spectrum analysis
Homo sapiens [17] = species on record: Homo sapiens; test: Reversible inhibition of N-terminal 6His-TEV-tagged recombinant human GPX4-U46C-C10A-C66A mutant (Met1 to Phe170 residues) expressed in Escherichia coli BL21 (DE3) cells by mass spectrum analysis

SMILES: O=C(O)[C@H](O)Cc1ccc(O)c(O)c1
IC50 [1]: 6.54 µM | inhibition (Homo sapiens [2]): Active

SMILES: CCc1c(NCS(=O)(=O)O)c(=O)n(-c2ccccc2)n1C
IC50 [3]: > 100 µM

SMILES: Cc1c(NCS(=O)(=O)O)c(=O)n(-c2cccc(Br)c2)n1C
IC50 [3]: 10.3 µM

SMILES: N[C@@H](CO)C(=O)NNCc1ccc(O)c(O)c1O
IC50 [1]: 7.52 µM | inhibition (Homo sapiens [2]): Active

SMILES: Cc1c(NCS(=O)(=O)O)c(=O)n(-c2ccccc2-c2ccoc2)n1C
IC50 [3]: 5.74 µM

SMILES: Cc1c(NCS(=O)(=O)O)c(=O)n(-c2ccccc2)n1C
IC50 [3]: 2.37 µM

SMILES: Cn1c(C2CC2)c(NCS(=O)(=O)O)c(=O)n1-c1ccccc1
IC50 [3]: 4.65 µM

SMILES: Cn1c(CO)c(NCS(=O)(=O)O)c(=O)n1-c1ccccc1
IC50 [3]: 22.7 µM

SMILES: Cc1c(NCS(=O)(=O)O)c(=O)n(-c2cccc(-c3ccoc3)c2)n1C
IC50 [3]: 5.89 µM

SMILES: O=c1oc2cc(O)ccc2s1 [TIOXOLONE]
IC50 [1]: 5.18 µM | inhibition (Homo sapiens [2]): Active

SMILES: Cc1c(N(C)CS(=O)(=O)O)c(=O)n(-c2ccccc2)n1C [DIPYRONE SODIUM]
IC50 [3]: 4.75 µM | IC50 [1]: 1.4 µM | IC50 [4]: 31.1 µM | Kd [5]: 5.23 µM | Vmax (Homo sapiens [6]): 0.439 nM/min | Vmax (Homo sapiens [7]): 0.361 nM/min | Vmax (Homo sapiens [8]): 0.345 nM/min | Vmax (Homo sapiens [9]): 0.306 nM/min | Vmax (Homo sapiens [10]): 0.289 nM/min | Km (Homo sapiens [11]): 23.4 µM | Km (Homo sapiens [12]): 17.2 µM | Km (Homo sapiens [13]): 15.7 µM | Km (Homo sapiens [14]): 12.1 µM | Km (Homo sapiens [15]): 11.9 µM | inhibition (Homo sapiens [2]): Active | Activity (Homo sapiens [16]): Active | inhibition (Homo sapiens [17]): Dose-Dependent Effect

SMILES: Cc1c(NCS(=O)(=O)O)c(=O)n(-c2ccccn2)n1C
IC50 [3]: 3.54 µM

SMILES: Cc1c(NCS(=O)(=O)O)c(=O)n(-c2ccc(-c3ccoc3)cc2)n1C
IC50 [3]: 8.51 µM

SMILES: Cc1c(NCS(=O)(=O)O)c(=O)n(C2CCCCC2)n1C
IC50 [3]: 2.53 µM

SMILES: CC(C)c1c(NCS(=O)(=O)O)c(=O)n(-c2ccccc2)n1C
IC50 [3]: 4.6 µM

The next lines start with results.

IC50 [3]: 6.02 µM
SMILES: CCCn1c(C)c(NCS(=O)(=O)O)c(=O)n1-c1ccccc1

IC50 [3]: > 100 µM
SMILES: Cc1c(NCS(=O)(=O)O)c(=O)n(-c2cccc(-c3ccccc3)c2)n1C

IC50 [3]: 9.63 µM
SMILES: Cc1c(NCS(=O)(=O)O)c(=O)n(-c2cccc(-c3ccc(Br)cc3)c2)n1C

IC50 [1]: 4.58 µM
SMILES: C=CC1=C(C)C(=O)N/C1=C\c1[nH]c(Cc2[nH]c(/C=C3\NC(=O)C(C)=C3C=C)c(C)c2CCC(=O)O)c(CCC(=O)O)c1C
inhibition (Homo sapiens [2]): Active

IC50 [3]: > 100 µM
SMILES: Cc1c(NCS(=O)(=O)O)c(=O)n(-c2ccccc2)n1C(C)C

IC50 [3]: 12.1 µM
SMILES: Cc1c(NCS(=O)(=O)O)c(=O)n(-c2ccccc2Br)n1C

IC50 [1]: 13.8 µM
SMILES: Cc1c(S(=O)(=O)O)oc2c1C(=O)C(=O)c1c-2ccc2c1CCCC2(C)C [SODIUM TANSHINONE IIA SULFONATE]
inhibition (Homo sapiens [2]): Active

IC50 [3]: > 100 µM
SMILES: Cc1c(NCS(=O)(=O)O)c(=O)n(-c2ccc(-c3ccccc3)cc2)n1C

IC50 [3]: > 100 µM
SMILES: CCCc1c(NCS(=O)(=O)O)c(=O)n(-c2ccccc2)n1C

IC50 [3]: 4.21 µM
SMILES: Cc1c(NCS(=O)(=O)O)c(=O)n(-c2ccccc2-c2ccccc2)n1C

IC50 [3]: > 100 µM
SMILES: Cc1c(NCC(=O)O)c(=O)n(-c2ccccc2)n1C

IC50 [3]: > 100 µM
SMILES: CNC(=O)CN(C)c1c(C)n(C)n(-c2ccccc2)c1=O
